# Tested on: HBV rcDNA in HepDE19 cells
# Test: HepDE19 assay with bDNA quantitation of HBV rcDNA
# Type: cell-based, hepatitis B virus (HBV)
# Settings: Hepatitis B virus, HepDE19, 168 h, inhibition of rcDNA formation in HepDE19 cells (HepG2 derived), Tet-free medium, 7 day incubation, Quantigene 2.0 bDNA readout, top concentration 25 μM; read-out: DE-19bDNA EC50
# Description: HepDE19 Assay with bDNA Quantitation of HBV rcDNA:
# HepDE19 cell culture system is a HepG2 (human hepatocarcinoma) derived cell line that supports HBV DNA replication and cccDNA formation in a tetracycline (Tet)-regulated manner and produces HBV rcDNA and a detectable reporter molecule dependent on the production and maintenance of cccDNA (Guo, et al., 2007, J. Virol. 81:12472-12484).
# HepDE19 (50,000 cells/well) were plated in 96-well collagen-coated tissue-culture treated microtiter plates in DMEM/F12 medium supplemented with 10% fetal bovine serum, 1% penicillin-streptomycin and 1 μg/mL tetracycline and incubated in a humidified incubator at 37° C. and 5% CO2 overnight. Next day, the cells were switched to fresh medium without tetracycline and incubated for 4 hours at 37° C. and 5% CO2. The cells were treated with fresh Tet-free medium with compounds at concentrations starting at 25 μM and a serial, […], 8-point, titration series in duplicate. The final DMSO concentration in the assay was 0.5%. The plates were incubated for 7 days in a humidified incubator at 37° C. and 5% CO2. Following a 7 day-incubation, the level of rcDNA present in the inhibitor-treated wells was measured using a Quantigene 2.0 bDNA assay kit (Affymetrix, Santa Clara, Calif.) with HBV specific custom probe set and manufacturers instructions. Concurrently, the effect of compounds on cell viability was assessed using replicate plates, plated at a density of 5,000 cells/well and incubated for 4 days, to determine the ATP content as a measure of cell viability using the cell-titer glo reagent (CTG; Promega Corporation, Madison, Wis.) as per manufacturer's instructions. The plates were read using a Victor luminescence plate reader (PerkinElmer Model 1420 Multilabel counter) and the relative luminescence units (RLU) data generated from each well was calculated as % inhibition of the untreated control wells and analyzed using XL-Fit module in Microsoft Excel to determine EC50 and EC90 (bDNA) and CC50 (CTG) values using a 4-parameter curve fitting algorithm.
# Representative compounds of the disclosure were tested for their abilities to inhibit formation of relaxed circular DNA (rcDNA) in a HepDE19 assay, as described elsewhere herein.
row,SMILES,EC50
1,"CN(C(=O)Nc1ccc(F)c(Cl)c1)C1CCCc2[nH]c(=O)c3ccccc3c21 (racemic) [Compound 6, 3-(3-Chloro-4-fluorophenyl)-1-methyl-1-(6-oxo-1,2,3,4,5,6-hexahydrophenanthridin-1-yl)urea]",80 nM
2,"CN(C(=O)Nc1ccc(F)c(Cl)c1)C1CCCc2[nH]c(=O)c3cc(F)c(F)cc3c21 (racemic) [Compound 15, 3-(3-Chloro-4-fluorophenyl)-1-(8,9-difluoro-6-oxo-1,2,3,4,5,6-hexahydrophenanthridin-1-yl)-1-methylurea]",20 nM
3,"CN(C(=O)Nc1ccc(F)c(Cl)c1)C1COCc2[nH]c(=O)c3ccccc3c21 (racemic) [Compound 18, 3-(3-Chloro-4-fluorophenyl)-1-methyl-1-(6-oxo-1,4,5,6-tetrahydro-2H-pyrano[3,4-c]isoquinolin-1-yl)urea]",30 nM
4,"CN(C(=O)Nc1ccc(F)c(Cl)c1)C1COCc2[nH]c(=O)c3cc(F)ccc3c21 (racemic) [Compound 23, 3-(3-Chloro-4-fluorophenyl)-1-(8-fluoro-6-oxo-1,4,5,6-tetrahydro-2H-pyrano[3,4-c]isoquinolin-1-yl)-1-methylurea]",20 nM
5,"CN(C(=O)Nc1ccc(F)c(Cl)c1)C1COCc2[nH]c(=O)c3cc(F)c(F)cc3c21 (racemic) [Compound 24, 3-(3-Chloro-4-fluorophenyl)-1-(8,9-difluoro-6-oxo-1,4,5,6-tetrahydro-2H-pyrano[3,4-c]isoquinolin-1-yl)-1-methylurea]",10 nM
6,"CC1Cc2[nH]c(=O)c3ccccc3c2C(N(C)C(=O)Nc2ccc(F)c(Cl)c2)C1 (racemic) [Compound 26, 3-(3-Chloro-4-fluorophenyl)-1-methyl-1-(3-methyl-6-oxo-1,2,3,4,5,6-hexahydrophenanthridin-1-yl)urea]",2900 nM
7,"CCN(C(=O)Nc1ccc(F)c(Cl)c1)C1COCc2[nH]c(=O)c3cc(F)c(F)cc3c21 (racemic) [Compound 45, 3-(3-Chloro-4-fluorophenyl)-1-(8,9-difluoro-6-oxo-1,4,5,6-tetrahydro-2H-pyrano[3,4-c]isoquinolin-1-yl)-1-ethylurea]",10 nM
8,"CN(C(=O)Nc1ccc(F)c(C#N)c1)C1COCc2[nH]c(=O)c3cc(F)c(F)cc3c21 (racemic) [Compound 106, 3-(3-Cyano-4-fluorophenyl)-1-(8,9-difluoro-6-oxo-1,4,5,6-tetrahydro-2H-pyrano[3,4-c]isoquinolin-1-yl)-1-methylurea]",20 nM
9,"CN(C(=O)Nc1ccc(F)c(Cl)c1)C1COC(=O)c2[nH]c(=O)c3cc(F)c(F)cc3c21 (racemic) [Compound 152, 3-(3-Chloro-4-Fluorophenyl)-1-(8,9-difluoro-4,6-dioxo-1,4,5,6-tetrahydro-2H-pyrano[3,4-c]isoquinolin-1-yl)-1-methylurea]",20 nM
10,"CN(C(=O)Nc1ccc(F)c(C#N)c1)C1CS(=O)(=O)Cc2[nH]c(=O)c3cc(F)ccc3c21 (racemic) [Compound 215, 3-(3-Cyano-4-fluorophenyl)-1-(8-fluoro-3,3-dioxido-6-oxo-1,4,5,6-tetrahydro-2H-thiopyrano[3,4-c]isoquinolin-1-yl)-1-methylurea]",≥ 25000 nM
11,"CN(C(=O)Nc1ccc(F)c(C(F)F)c1)C1COCc2nc(NCCN)c3cc(F)c(F)cc3c21 (racemic) [Compound 239, 1-(6-((2-Aminoethyl)amino)-8,9-difluoro-1,4-dihydro-2H-pyrano[3,4-c]isoquinolin-1-yl)-3-(3-(difluoromethyl)-4-fluorophenyl)-1-methylurea]",300 nM
12,"CN(C(=O)Nc1ccc(F)c(Cl)c1)[C@H]1COCc2[nH]c(=O)c3cc(F)ccc3c21 (single isomer, unassigned) [Compound 40]",1000 nM
13,"CN(C(=O)Nc1ccc(F)c(Cl)c1)[C@@H]1COCc2[nH]c(=O)c3cc(F)ccc3c21 (single isomer, unassigned) [Compound 41]",10 nM
14,"CN(C(=O)Nc1ccc(F)c(Cl)c1)C1CCCc2[nH]c(=O)c3c(c21)CCOC3 (single isomer, unassigned) [Compound 60, 3-(3-Chloro-4-fluorophenyl)-1-methyl-1-(5-oxo-1,4,5,6,7,8,9,10-octahydro-2H-pyrano[3,4-c]quinolin-10-yl)urea]",3200 nM

# Same assay, conditions: inhibition of rcDNA formation in HepDE19 cells (HepG2 derived), Tet-free medium, 7 day incubation, Quantigene 2.0 bDNA readout, top concentration 25 μM; read-out: DE-19bDNA EC50
row,SMILES,EC50
1,"CN(C(=O)Nc1ccc(F)c(Cl)c1)C1CCCc2[nH]c(=O)c3ccccc3c21 (single isomer, unassigned) [Compound 16, 3-(3-Chloro-4-fluorophenyl)-1-methyl-1-(6-oxo-1,2,3,4,5,6-hexahydrophenanthridin-1-yl)urea]",760 nM
2,"CN(C(=O)Nc1ccc(F)c(Cl)c1)C1CCCc2[nH]c(=O)c3ccccc3c21 (single isomer, unassigned) [Compound 17, 3-(3-Chloro-4-fluorophenyl)-1-methyl-1-(6-oxo-1,2,3,4,5,6-hexahydrophenanthridin-1-yl)urea]",50 nM
3,"CN(C(=O)Nc1ccc(F)c(Cl)c1)C1COCc2[nH]c(=O)c3ccccc3c21 (single isomer, unassigned) [Compound 36, 3-(3-Chloro-4-fluorophenyl)-1-methyl-1-(6-oxo-1,4,5,6-tetrahydro-2H-pyrano[3,4-c]isoquinolin-1-yl)urea]",4600 nM
4,"CN(C(=O)Nc1ccc(F)c(Cl)c1)C1COCc2[nH]c(=O)c3ccccc3c21 (single isomer, unassigned) [Compound 37, 3-(3-Chloro-4-fluorophenyl)-1-methyl-1-(6-oxo-1,4,5,6-tetrahydro-2H-pyrano[3,4-c]isoquinolin-1-yl)urea]",30 nM
5,"CN(C(=O)Nc1ccc(F)c(Cl)c1)C1CCCc2[nH]c(=O)c3c(c21)CCCC3 (single isomer, unassigned) [Compound 46, 3-(3-Chloro-4-fluorophenyl)-1-methyl-1-(6-oxo-1,2,3,4,5,6,7,8,9,10-decahydrophenanthridin-1-yl)urea]",1200 nM
6,"CN(C(=O)Nc1ccc(F)c(Cl)c1)C1CCCc2[nH]c(=O)c3c(c21)CCCC3 (single isomer, unassigned) [Compound 47, 3-(3-Chloro-4-fluorophenyl)-1-methyl-1-(6-oxo-1,2,3,4,5,6,7,8,9,10-decahydrophenanthridin-1-yl)urea]",60 nM
7,"CN(C(=O)Nc1ccc(F)c(F)c1)C1CCCc2[nH]c(=O)c3c(c21)CCCC3 (single isomer, unassigned) [Compound 48, 3-(3,4-Difluorophenyl)-1-methyl-1-(6-oxo-1,2,3,4,5,6,7,8,9,10-decahydrophenanthridin-1-yl)urea]",3100 nM
8,"CN(C(=O)Nc1ccc(F)c(F)c1)C1CCCc2[nH]c(=O)c3c(c21)CCCC3 (single isomer, unassigned) [Compound 49, 3-(3,4-Difluorophenyl)-1-methyl-1-(6-oxo-1,2,3,4,5,6,7,8,9,10-decahydrophenanthridin-1-yl)urea]",160 nM
9,"CCN(C(=O)Nc1ccc(F)c(F)c1)C1CCCc2[nH]c(=O)c3c(c21)CCCC3 (single isomer, unassigned) [Compound 50, 3-(3,4-Difluorophenyl)-1-ethyl-1-(6-oxo-1,2,3,4,5,6,7,8,9,10-decahydrophenanthridin-1-yl)urea]",6800 nM
10,"CCN(C(=O)Nc1ccc(F)c(F)c1)C1CCCc2[nH]c(=O)c3c(c21)CCCC3 (single isomer, unassigned) [Compound 51, 3-(3,4-Difluorophenyl)-1-ethyl-1-(6-oxo-1,2,3,4,5,6,7,8,9,10-decahydrophenanthridin-1-yl)urea]",100 nM
11,"CCN(C(=O)Nc1ccc(F)c(Cl)c1)C1CCCc2[nH]c(=O)c3c(c21)CCCC3 (single isomer, unassigned) [Compound 53, 3-(3-Chloro-4-fluorophenyl)-1-ethyl-1-(6-oxo-1,2,3,4,5,6,7,8,9,10-decahydrophenanthridin-1-yl)urea]",2600 nM
12,"CCN(C(=O)Nc1ccc(F)c(Cl)c1)C1CCCc2[nH]c(=O)c3c(c21)CCCC3 (single isomer, unassigned) [Compound 54, 3-(3-Chloro-4-fluorophenyl)-1-ethyl-1-(6-oxo-1,2,3,4,5,6,7,8,9,10-decahydrophenanthridin-1-yl)urea]",30 nM
13,"CN(C(=O)Nc1ccc(F)c(Cl)c1)C1CCCc2[nH]c(=O)c3c(c21)CCOC3 (single isomer, unassigned) [Compound 61, 3-(3-Chloro-4-fluorophenyl)-1-methyl-1-(5-oxo-1,4,5,6,7,8,9,10-octahydro-2H-pyrano[3,4-c]quinolin-10-yl)urea]",5100 nM
